The target of assay [1] is T1, MAGL (Mus musculus, UniProt O35678).
T1 sequence (O35678 1-303): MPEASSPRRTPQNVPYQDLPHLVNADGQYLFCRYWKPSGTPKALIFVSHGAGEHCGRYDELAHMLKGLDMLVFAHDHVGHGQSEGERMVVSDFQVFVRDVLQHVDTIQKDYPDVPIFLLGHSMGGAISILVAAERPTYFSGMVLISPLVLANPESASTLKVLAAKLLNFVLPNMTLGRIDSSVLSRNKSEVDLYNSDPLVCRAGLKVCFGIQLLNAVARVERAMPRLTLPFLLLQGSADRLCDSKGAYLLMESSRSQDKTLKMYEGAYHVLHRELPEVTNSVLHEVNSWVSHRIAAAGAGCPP
In words: In vitro competitive activity-based protein profiling, MAGL, mouse. Particulars: read-out: MAGL % inh. 1 μM (mouse).

Assay [2] addresses T2, MAGL (Homo sapiens, UniProt Q99685).
T2 sequence (Q99685 1-303): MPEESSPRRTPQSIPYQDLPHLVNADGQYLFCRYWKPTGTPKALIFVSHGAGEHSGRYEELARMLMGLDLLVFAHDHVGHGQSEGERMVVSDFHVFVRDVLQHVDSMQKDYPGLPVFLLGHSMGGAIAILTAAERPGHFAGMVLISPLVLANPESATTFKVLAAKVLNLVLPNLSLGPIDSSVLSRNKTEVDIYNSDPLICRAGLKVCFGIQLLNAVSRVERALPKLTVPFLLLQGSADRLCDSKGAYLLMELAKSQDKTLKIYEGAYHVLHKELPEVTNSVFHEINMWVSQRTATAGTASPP
In words: In vitro competitive activity-based protein profiling, MAGL, human. Particulars: for inhibition at 1 µM: read-out: MAGL % inh. 1 μM (human); for inhibition at 10 µM: read-out: MAGL % inh. (human) at 10 uM.

A word on the IC50: it is the concentration at which inhibition is half-maximal. A low value points to greater potency in that assay.

As to `Cc1cn(C(=O)N2CCN(Cc3cc(F)cc(Oc4ccc(Cl)cc4)c3)CC2)nc1C(=O)O` [Example 346, 1-(4-(3-(4-chlorophenoxy)-5-fluorobenzyl)piper-azine-1-carbonyl)-4-methyl-1H-pyrazole-3-carboxylic acid], the inhibition at 1 µM on MAGL [1] and on MAGL [2] was greater than 75% throughout.
In the case of `O=C(O)c1ccn(C(=O)N2CCC(OCc3ccc(Cl)c(C(F)(F)F)c3)CC2)n1` [Example 276, 1-(4-((4-chloro-3-(trifluoromethyl)benzyl)oxy)piper-idine-1-carbonyl)-1H-pyrazole-3-carboxylic acid], the inhibition at 1 µM at MAGL [1] and at MAGL [2] was greater than 75% in each case.
For `O=C(O)c1ccn(C(=O)N2CCC3(CCN(Cc4cccc(Cl)c4C(F)(F)F)C3)CC2)n1` [Example 340, 1-(2-(3-chloro-2-(trifluoromethyl)benzyl)-2,8-diazaspiro[4.5]decane-8-carbonyl)-1H-pyrazole-3-carboxylic acid], the inhibition at 1 µM on MAGL [1] and at MAGL [2] was greater than 75% in each case.
In the case of `CC1(NCc2ccc(C(F)(F)F)cc2N2CCCC2)CCN(C(=O)n2ccc(C(=O)O)n2)CC1` [Example 361, 1-(4-methyl-4-((2-(pyrrolidin-1-yl)-4-(trifluoromethyl)benzyl)amino)piper-idine-1-carbonyl)-1H-pyrazole-3-carboxylic acid], the inhibition at 1 µM on MAGL [1] and on MAGL [2] was greater than 75% throughout.
`NC(=O)c1ccn(C(=O)N2CCN(Cc3cccc(C4(C(=O)O)CCOCC4)c3)CC2)n1` [Example 455, 4-(3-((4-(3-carbamoyl-1H-pyrazole-1-carbonyl)piperazin-1-yl)methyl)phenyl) tetrahydro-2H-pyran-4-carboxylic acid]: the inhibition at 1 µM at MAGL [1] and on MAGL [2] was greater than 75% each time.
Take `Cc1cn(C(=O)N2C[C@H]3C[C@H](OCc4cccc(C(F)(F)F)c4C)C[C@H]3C2)nc1C(=O)O` [Example 306, 4-methyl-1-(trans-5-((2-methyl-3-(trifluoromethyl)benzyl)oxy)octa-hydrocyclopenta[c]pyrrole-2-carbonyl)-1H-pyrazole-3-carboxylic acid]: the inhibition at 1 µM at MAGL [1] and at MAGL [2] was greater than 75% each time.
`Cc1cc(-c2ccccc2)ccc1CN1CCN(C(=O)n2ccc(C(=O)O)n2)[C@@H](C)C1` [Example 246, (S)-1-(2-methyl-4-((3-methyl-[1,1′-biphenyl]-4-yl)methyl)piperazine-1-carbonyl)-1H-pyrazole-3-carboxylic acid]: the inhibition at 1 µM at MAGL [1] was greater than 75%. Moreover, on MAGL [2], the IC50 was 100 to 1000 nM and the inhibition at 1 µM was greater than 75%.
For `C[C@H]1C[C@H](N(C)Cc2cccc(C(F)(F)F)c2)CCN1C(=O)n1ccc(C(N)=O)n1` [Example 259, 1-((2S,4R)-2-methyl-4-(methyl(3-(trifluoromethyl)benzyl)amino)piperidine-1-carbonyl)-1H-pyrazole-3-carboxamide], the inhibition at 1 µM on MAGL [1] and at MAGL [2] was greater than 75% in each case.
As to `C[C@H]1CN(Cc2cccc(OCC(C)(C)O)c2Cl)CCN1C(=O)n1ccc(C(N)=O)n1` [Example 450, (S)-1-(4-(2-chloro-3-(2-hydroxy-2-methylpropoxy)benzyl)-2-methylpiperazine-1-carbonyl)-1H-pyrazole-3-carboxamide], the inhibition at 1 µM at MAGL [1] and at MAGL [2] was greater than 75% throughout.
Consider `Cc1cn(C(=O)N2CCC(C)(N(C)Cc3ccc(C(F)(F)F)cc3N3CCCC3)CC2)nc1C(=O)O` [Example 398], for which the inhibition at 1 µM at MAGL [1] and at MAGL [2] was greater than 75% in each case.
Take `O=C(O)c1ccn(C(=O)N2CCN(Cc3cc(F)cc(Oc4ccccc4Cl)c3)CC2)n1` [Example 319, 1-(4-(3-(2-chlorophenoxy)-5-fluorobenzyl)piper-azine-1-carbonyl)-1H-pyrazole-3-carboxylic acid]: the inhibition at 1 µM on MAGL [1] and at MAGL [2] was greater than 75% throughout.
In the case of `O=C(O)c1ccn(C(=O)N2C[C@H]3C[C@H](OCc4cccc(-c5ccccc5)c4)C[C@H]3C2)n1` [Example 278, 1-(trans-5-([1,1′-biphenyl]-3-ylmethoxy)octa-hydrocyclopenta[c]pyrrole-2-carbonyl)-1H-pyrazole-3-carboxylic acid], the inhibition at 1 µM at MAGL [1] and on MAGL [2] was greater than 75% in each case.
For `O=C(O)c1ccn(C(=O)N2C[C@H]3C[C@@H](OCc4cccc(-c5ccccc5)c4)C[C@H]3C2)n1` [Example 279, 1-(cis-5-([1,1′-biphenyl]-3-ylmethoxy)octa-hydrocyclopenta[c]pyrrole-2-carbonyl)-1H-pyrazole-3-carboxylic acid], the inhibition at 1 µM on MAGL [1] and at MAGL [2] was greater than 75% throughout.
As to `C[C@H]1CN(Cc2cc(F)cc(Oc3ccccc3Cl)c2)CCN1C(=O)n1ccc(C(=O)O)n1` [Example 349, (S)-1-(4-(3-(2-chlorophenoxy)-5-fluorobenzyl)-2-methylpiperazine-1-carbonyl)-1H-pyrazole-3-carboxylic acid], the inhibition at 1 µM at MAGL [1] and on MAGL [2] was greater than 75% each time.
`O=C(O)c1ccn(C(=O)N2CCC3(CCN(C(=O)c4cc(Cl)ccc4C(F)(F)F)C3)CC2)n1` [Example 366, 1-(2-(5-chloro-2-(trifluoromethyl)benzoyl)-2,8-diazaspiro[4.5]decane-8-carbonyl)-1H-pyrazole-3-carboxylic acid]: the inhibition at 1 µM on MAGL [1] lay within 0 to 25%. The inhibition at 10 µM at MAGL [2] was greater than 75%.
For the compound `O=C(O)c1ccn(C(=O)N2C[C@H]3C[C@H](Oc4cccc(C5CC5)c4)C[C@H]3C2)n1` [Example 219, 1-(trans-5-(3-cyclopropylphenoxy)octahydrocyclopenta [c]pyrrole-2-carbonyl)-1H-pyrazole-3-carboxylic acid], the inhibition at 1 µM at MAGL [1] and at MAGL [2] was greater than 75% in each case.
With `NC(=O)c1ccc(Cl)cc1CN1CCC2(CCN(C(=O)n3ccc(C(=O)O)n3)CC2)C1` [Example 300, 1-(2-(2-carbamoyl-5-chlorobenzyl)-2,8-diazaspiro[4.5]decane-8-carbonyl)-1H-pyrazole-3-carboxylic acid], the inhibition at 1 µM at MAGL [1] lay within 0 to 25%. Moreover, the inhibition at 10 µM at MAGL [2] was greater than 75%.
Consider `O=C(O)c1ccn(C(=O)N2C[C@H]3C[C@H](Oc4cccc(C(F)(F)F)c4)C[C@H]3C2)n1` [Example 231, 1-(trans-5-(3-(trifluoromethyl)phenoxy)octahydro-cyclopenta[c]pyrrole-2-carbonyl)-1H-pyrazole-3-carboxylic acid], for which the inhibition at 1 µM at MAGL [1] and at MAGL [2] was greater than 75% in each case.
In the case of `O=C(O)c1ccn(C(=O)N2CCC3(CC2)CN(Cc2cc(Cl)ccc2C(F)(F)F)C3)n1` [Example 313, 1-(2-(5-chloro-2-(trifluoromethyl)benzyl)-2,7-diazaspiro[3.5]non-ane-7-carbonyl)-1H-pyrazole-3-carboxylic acid], the inhibition at 1 µM on MAGL [1] and on MAGL [2] was greater than 75% in each case.
Regarding `O=C(O)c1ccn(C(=O)N2CCC(OCc3cccc(N4CCCC4)c3)CC2)n1` [Example 226, 1-(4-((3-(pyrrolidin-1-yl)benzyl)oxy)piper-idine-1-carbonyl)-1H-pyrazole-3-carboxylic acid], the inhibition at 1 µM at MAGL [1] and on MAGL [2] was greater than 75% throughout.
